What was measured:
[1] = target: T1, human DBP (vitamin D binding protein) (Homo sapiens, UniProt P02774); assay: Relative affinity for purified human vitamin D-binding protein (hDBP); settings: % of the activity of 1α,25-(OH)2D3 at 50% of its activity (B50)
T1 sequence (P02774 17-474): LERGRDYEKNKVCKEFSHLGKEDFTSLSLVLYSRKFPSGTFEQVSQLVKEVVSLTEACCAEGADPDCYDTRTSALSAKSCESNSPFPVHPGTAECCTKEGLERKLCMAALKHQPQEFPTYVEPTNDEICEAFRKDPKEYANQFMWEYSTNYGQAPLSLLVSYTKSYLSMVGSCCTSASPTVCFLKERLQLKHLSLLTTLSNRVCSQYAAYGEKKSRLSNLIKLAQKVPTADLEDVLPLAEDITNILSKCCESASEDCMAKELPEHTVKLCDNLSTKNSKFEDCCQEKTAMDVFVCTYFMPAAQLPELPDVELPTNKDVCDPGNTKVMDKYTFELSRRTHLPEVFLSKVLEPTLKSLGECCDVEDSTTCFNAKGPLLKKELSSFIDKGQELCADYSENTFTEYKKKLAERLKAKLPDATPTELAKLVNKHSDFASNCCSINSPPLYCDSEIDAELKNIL

HL-60 cells = assay: HL-60 cell differentiation (NBT reduction); assay type: cell-based; settings: % of the activity of 1α,25-(OH)2D3 at 50% of its activity (B50); human leukemia cells
Protocol: (§1) HL-60 cells were seeded at 1.2×10^5 cells/ml and 1α,25-(OH)2D3 or its anologs were added in ethanol (final concentration <0.2%) in RPMI 1640 medium supplemented with 10% heat-inactivated fetal calf serum (FCS) for 4 d at 37° C. Cells were then assayed for maturation by NBT reduction assay as described (22) using a hemacytometer, or for proliferation by cell counting and [^3H] thymidine incorporation. MG 63 cells, seeded at 5×10^3 cells/ml in 96 well flat bottomed culture plates (Falcon, Becton Dickinson, N.J.) in a volume of 0.2 ml of DMEM and 2% FCS, were incubated with 1α,25-(OH)2D3 or its analogues for 72 h. Osteocalcin was then measured in the culture medium using a homologous human osteocalcin RIA (39). Breast carcinoma cells (MCF-7 or GR) were grown in DMEM/nut.mix F-12 (HAM) medium supplemented with 10% FCS. Cells (5000/Well) were incubated during 24 h in 96 well tissue culture plates (Falcon 3072) followed by a 72 h incubation with/without 1α,25-(OH)2D3 or analogues. The cells were then incubated with [^3H]thymidine (1 μCi/well) for 4 h and harvested thereafter in NaOH (0.1 M) and the radioactivity counted. The protein content of the cells was measured by the Pierce BCA protein assay (Rockford, Ill.).

MG-63 cells = assay: MG-63 osteosarcoma cells, osteocalcin secretion; assay type: cell-based; settings: % of the activity of 1α,25-(OH)2D3 at 50% of its activity (B50); human osteosarcoma cells
Protocol: as §1

MCF-7 cells = assay: MCF-7 breast cancer cell proliferation ([3H]thymidine incorporation); assay type: cell-based; settings: % of the activity of 1α,25-(OH)2D3 at 50% of its activity (B50); human breast cancer cells
Protocol: as §1

[2] = system: vitamin D-deficient chicks; assay: Calcemic effect in vitamin D-deficient chicks (serum calcium); assay type: in vivo, chick; settings: % of the activity of 1α,25-(OH)2D3 at 50% of its activity (B50); vitamin D-deficient chicks injected 10 consecutive days
Protocol: The antirachitic activity of the analogues was tested in 3 weeks old vitamin D-deficient chicks injected for 10 consecutive days with 1α,25-(OH)2D3 or its analogues (22,23). Serum calcium (by atomic absorptiometry) and osteocalcin (by specific RIA), duodenal calbindin D-28K (by RIA) and bone calcium content were measured. The hypercalcemic effect of the most interesting anologues was also tested in vitamin D-replete normal NMRI mice by daily sc injection of 1α,25-(OH)2D3, its analogues or the solvent for 7 consecutive days, using serum, bone and urinary calcium excretion and serum osteocalcin (by specific mouse RIA) as parameters (40).

vitamin D receptor = target: T2, vitamin D receptor (Sus scrofa, UniProt A3RGC1); settings: % of the activity of 1α,25-(OH)2D3 at 50% of its activity (B50); 1α,25-(OH)2D3 assigned 100%
T2 sequence (A3RGC1 1-427): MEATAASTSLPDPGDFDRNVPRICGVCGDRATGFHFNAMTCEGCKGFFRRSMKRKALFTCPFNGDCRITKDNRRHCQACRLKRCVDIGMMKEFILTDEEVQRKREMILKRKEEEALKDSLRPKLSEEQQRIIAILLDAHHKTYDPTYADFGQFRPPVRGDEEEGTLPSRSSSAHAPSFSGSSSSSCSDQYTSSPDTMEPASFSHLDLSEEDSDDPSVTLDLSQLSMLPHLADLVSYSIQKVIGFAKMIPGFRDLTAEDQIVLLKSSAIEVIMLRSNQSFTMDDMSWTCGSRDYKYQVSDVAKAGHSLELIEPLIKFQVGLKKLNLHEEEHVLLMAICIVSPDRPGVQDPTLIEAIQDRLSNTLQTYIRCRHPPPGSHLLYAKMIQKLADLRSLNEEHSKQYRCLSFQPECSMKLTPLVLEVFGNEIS

[3] = system: human normal keratinocytes; assay: Human keratinocyte proliferation ([3H]thymidine incorporation); assay type: cell-based; settings: % of the activity of 1α,25-(OH)2D3 at 50% of its activity (B50)
Protocol: to evaluate the effects on cell proliferation of non-malignant cells and especially to evaluate their potential for use for dermatological disorders, the new compounds were tested in cultures of human normal keratinocytes.
Human skin keratinocytes were isolated and cultured using a modification of the method of Kitano and Okada (38).
Briefly, the skin from biopsies of patients with breast tumors, was cutted into pieces measuring 3-5 mm and soaked overnight at 4° C. in a solution of dispase (20 Boehringer units/ml). The epidermis was peeled from the dermis, washed with calcium- and magnesium-free phosphate buffered saline and incubated and shaked in a 0.25% trypsin solution for 10 min at room temperature. The reaction was then stopped by addition of PBS containing 10% FCS. The cells were collected after centrifugation at 4° C. for 10 min at 800 rpm. After an additional washing with PBS, the pellet was suspended in culture medium into 25 cm^2 primaria flasks from Becton Dickinson. The keratinocytes were cultivated at 37° C. in an atmosphere of 5% CO2 in air. A few hours later, the medium was replaced by new one. The medium [Keratinocyte Medium from Gibco containing Epidermal Growth Factor (5 ng/ml), Bovine Pituitary Extract (35-50 μg/ml) and antibiotics] was renewed every other day until confluency.
Keratinocytes were cultured in 96-well plate and, after 24 hours, were treated with various concentrations of vitamin D analogues, followed by pulse labelling with 1 μCi of [^3H]thymidine for 3 hours. Cultures were washed 3 times with PBS and twice with 10% (v/v) ice cold trichloroacetic acid. Cells were solubilized with 1 M NaOH and radioactivity was counted in a scintillation counter.

Structure (SMILES)	Affinity for human DBP [1] [%]	Cell differentation/cell proliferation HL-60 (HL-60 cells) [%]	Cell differentation/cell proliferation MG-63 (MG-63 cells) [%]	Cell differentation/cell proliferation MCF-7 (MCF-7 cells) [%]	Ca serum chick [2] [%]	Affinity for pig receptor (vitamin D receptor) [%]	Cell differentation/cell proliferation keratinocytes [3] [%]
CC(CC#CC1(C)CO1)C1CCC2C(=CC=C3CC(O)CC(O)C3)CCCC21C (mixture of isomers) [Compound 45]	1.5	80	10	20	1	2.5	–
CC(CCCC(C)(C)O)C1CCC2C(=CC=C3CC(O)CC(O)C3)CCC(O)C21 (stereo not drawn) [Compound 2]	0	75	4.5	–	–	0	–
C=C1C(=CC=C2CCCC3C2CCC3C(C)CCCC(C)(C)O)CC(O)CC1O (stereo not drawn) [Compound 3]	10	720	75	–	–	100	–
C=C1/C(=C\C=C2/CCC[C@](C)([C@H](C)[C@H](C)CC[C@H](O)C(C)C)C2)C[C@@H](O)C[C@@H]1O [Compound 4]	5	500	100	2000	<1	60	2000
C=C1/C(=C\C=C2/CCC[C@](C)([C@H](C)[C@H](C)CC[C@@H](O)C(C)C)C2)C[C@@H](O)C[C@@H]1O [Compound 5]	10	4000	1000	6000	9	80	5000
C=C1/C(=C\C=C2/CCC[C@](C)([C@H](C)[C@H](C)CCCC(C)(C)O)C2)C[C@@H](O)C[C@@H]1O [Compound 7]	20	1000	700	6000	5	60	–
CC(CCCC(C)(C)O)C(C)C1(C)CCCC(=CC=C2CC(O)CC(O)C2)C1 (stereo not drawn) [Compound 8]	3	>1000	300	3000	<0.1	45	–
C=C1C(=CC=CCC2(C)CCC(CCCC(C)(C)O)C2(C)C)CC(O)CC1O (stereo not drawn) [Compound 11]	19	30	35	30	<0.1	8	10
C=C1C(=CC=CCC2(C)CCC(CCCC(O)(CC)CC)C2(C)C)CC(O)CC1O (stereo not drawn) [Compound 12]	5	250	135	80	<0.1	45	100
